Results: ChEMBL document CHEMBL1201862, “PubChem BioAssay data set” (2004)
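1) Cells in 96-well plates. 2) Compound, 48 h, 5 concentrations. 3) Linear interpolation between surrounding doses. 4) Unreached endpoint = highest concentration. GI50 = concentration required for 50% inhibition of growth.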 Calls of active or inactive are those of the source. Cut-off read from the data, not from the text of the source: active = GI50 up to about 1.1 µM and inactive = higher.

Columns and labels:
Experiment in all cases: NCI-60 cell line screen, 48 h
A549 = system: A549
NCI-H226 = system: NCI-H226
M14 = system: M14
BT-549 = system: BT-549
LOX IMVI = system: LOX IMVI
SK-OV-3 = system: SK-OV-3
K562 = system: K562
CAKI-1 = system: CAKI-1
A498 = system: A498
KM12 = system: KM12
SF-539 = system: SF-539
HOP-92 = system: HOP-92
ACHN = system: ACHN
SR = system: SR
MDA-MB-231 = system: MDA-MB-231
IGROV-1 = system: IGROV-1
HT-29 = system: HT-29
SF-268 = system: SF-268
PC-3 = system: PC-3
UACC-62 = system: UACC-62

Measured: GI50

COc1cccc(OC)c1C1ON=C(c2ccccc2)N1C12CC3CC(CC(C3)C1)C2 (stereo not given)
inactive: A549 64.3 µM | NCI-H226 > 100 µM | M14 78 µM | BT-549 > 100 µM | LOX IMVI > 100 µM | SK-OV-3 38.1 µM | K562 > 100 µM | CAKI-1 > 100 µM | A498 > 100 µM | KM12 > 100 µM | SF-539 > 100 µM | HOP-92 10.9 µM | ACHN 35.3 µM | SR 5.92 µM | MDA-MB-231 > 100 µM | IGROV-1 > 100 µM | HT-29 > 100 µM | SF-268 > 100 µM | PC-3 66.5 µM | UACC-62 > 100 µM
